Patent US6969590B2, “Use of a polypeptide for treatment of pruritus in animals” (Zengen, Inc., priority 2001, dated 2005)

Tested on: cAMP
Assay: cAMP accumulation in N9 cells
Assay type: cell-based, murine
Settings: resting cells and cells incubated with LPS+IFN-γ
Method: cAMP accumulation in N9 cells was measured as previously described. Briefly, cells in six-well plates were co-incubated at 37° C. with (1) medium; (2) forskolin (100 μM); (3) LPS (10 ng/mL)+IFN-γ (1 U/mL); (4) α-MSH (1-13) or α-MSH (11-13) (1, 10, 50 μM); (5) LPS+IFN-γ and either α-MSN (1-13) or α-MSH (11-13) (10 μM). Reactions were stopped after 3 min by aspirating supernatants, immediately adding 1 mL ethanol at −20° C. and freezing. cAMP content in the ethanol-soluble fraction was measured using an enzyme immunoassay kit (Amersham).

For SYSMEHFRWGKPV [α-MSH (1-13)], the cAMP accumulation was “increased cAMP accumlation”.
